Data taken from ChEMBL document CHEMBL1130703, “The use of neamine as a molecular template: inactivation of bacterial antibiotic resistance enzyme aminoglycoside 3'-phosphotransferase type IIa” (Bioorg Med Chem Lett, 1998).

Experiments:
[1] = Kinetic constant(Kcat) was determined by native APH(3')-IIa method
[2] = Km was determined by Cyanylated APH(3')-IIa method
[3] = Michaelis constant was determined by native APH(3')-IIa method
[4] = Kinetic catalyst(Kcat) was determined by Cyanylated APH(3')-IIa method
[5] = Ratio of kinetic catalyst/Km was determined

Q: What does the source list for `NC[C@H]1O[C@H](O[C@H]2[C@H](O)[C@@H](O)[C@H](N)C[C@@H]2N)[C@H](N)[C@@H](O)[C@@H]1O`?
A: k cat [1]: 29 s⁻¹; Km [2]: 7.9 µM; Km [3]: 1.2 µM; Ratio [4]: 1.3e+06 M⁻¹ s⁻¹; k cat [4]: 9.93 s⁻¹; Ratio [5]: 2.4e+07 M⁻¹ s⁻¹
